Results: the NIST ThermoML archive (doi:10.1021/acs.jced.5b00813)

What was measured:
[1] = xn = mol fraction of the nth substance listed; details: 298.15 K, 100 kPa, Liquid, Vibrating tube method
[2] = excess molar enthalpy (molar enthalpy of mixing); xn = mol fraction of the nth substance listed; details: 298.15 K, 100 kPa, Liquid, Calvet calorimetry
[3] = 298.15 K; 100 kPa; Liquid; Vibrating tube method
[4] = refractive index (Na D-line) (dimensionless); details: 298.15 K; 101.33 kPa; Liquid; Standard Abbe refractometry

CCCCC(=O)OC [methyl pentanoate] + COC(C)=O
Details | excess molar enthalpy [kcal/mol] | mass density [kg/m3]
[1], x1 = 0.0496 | – | 922.92
[1], x1 = 0.1001 | – | 919.44
[1], x1 = 0.1536 | – | 916.04
[1], x1 = 0.2027 | – | 913.18
[1], x1 = 0.2511 | – | 910.53
[1], x1 = 0.3522 | – | 905.55
[1], x1 = 0.4013 | – | 903.35
[1], x1 = 0.4497 | – | 901.35
[1], x1 = 0.4935 | – | 899.62
[1], x1 = 0.5444 | – | 897.75
[1], x1 = 0.5935 | – | 896.01
[1], x1 = 0.6563 | – | 893.98
[1], x1 = 0.7383 | – | 891.47
[1], x1 = 0.7902 | – | 890.02
[1], x1 = 0.843 | – | 888.62
[1], x1 = 0.8918 | – | 887.4
[1], x1 = 0.9372 | – | 886.3
[1], x1 = 1 | – | 884.84
[2], x1 = 0.0539 | 0.012 | –
[2], x1 = 0.113 | 0.0229 | –
[2], x1 = 0.1716 | 0.0323 | –
[2], x1 = 0.2347 | 0.0413 | –
[2], x1 = 0.2915 | 0.0473 | –
[2], x1 = 0.344 | 0.0521 | –
[2], x1 = 0.3954 | 0.0552 | –
[2], x1 = 0.4441 | 0.0571 | –
[2], x1 = 0.5055 | 0.0569 | –
[2], x1 = 0.5754 | 0.0545 | –
[2], x1 = 0.6517 | 0.0507 | –
[2], x1 = 0.7339 | 0.0425 | –
[2], x1 = 0.8188 | 0.0301 | –
[2], x1 = 0.9036 | 0.0179 | –

CC(C)CC(C)(C)C [2,2,4-trimethylpentane] + COC(C)=O
Details | mass density [kg/m3]
[1], x1 = 1 | 687.75

CCCCCCCC [octane]
Details | mass density [kg/m3] | refractive index
[3] | 698.58 | –
[4] | – | 1.3952

CCCC(=O)OC [methyl butanoate] + CCCCCCCC
Details | excess molar enthalpy [kcal/mol] | mass density [kg/m3]
[1], x2 = 0 | – | 892.34
[1], x2 = 0.059 | – | 875.04
[1], x2 = 0.1109 | – | 860.65
[1], x2 = 0.152 | – | 849.82
[1], x2 = 0.2051 | – | 836.56
[1], x2 = 0.2557 | – | 824.52
[1], x2 = 0.2992 | – | 814.89
[1], x2 = 0.3501 | – | 803.53
[1], x2 = 0.4045 | – | 792.24
[1], x2 = 0.4516 | – | 782.9
[1], x2 = 0.4978 | – | 774.12
[1], x2 = 0.5469 | – | 765.18
[1], x2 = 0.5862 | – | 758.27
[1], x2 = 0.6551 | – | 746.75
[1], x2 = 0.6989 | – | 739.74
[1], x2 = 0.7471 | – | 732.42
[1], x2 = 0.7931 | – | 725.7
[1], x2 = 0.8428 | – | 718.65
[1], x2 = 0.9009 | – | 710.74
[1], x2 = 0.9367 | – | 706.37
[1], x2 = 0.9651 | – | 702.84
[1], x2 = 0.9655 | – | 702.79
[2], x2 = 0.0438 | 0.0509 | –
[2], x2 = 0.0922 | 0.0987 | –
[2], x2 = 0.144 | 0.144 | –
[2], x2 = 0.1978 | 0.184 | –
[2], x2 = 0.2521 | 0.218 | –
[2], x2 = 0.3043 | 0.244 | –
[2], x2 = 0.3543 | 0.264 | –
[2], x2 = 0.403 | 0.278 | –
[2], x2 = 0.4321 | 0.286 | –
[2], x2 = 0.4779 | 0.291 | –
[2], x2 = 0.5368 | 0.288 | –
[2], x2 = 0.6033 | 0.276 | –
[2], x2 = 0.676 | 0.251 | –
[2], x2 = 0.757 | 0.21 | –
[2], x2 = 0.8413 | 0.153 | –
[2], x2 = 0.9231 | 0.0865 | –

CCCC(=O)OC [methyl butanoate] + COC(C)=O
Details | excess molar enthalpy, [2] [kcal/mol] | mass density, [1] [kg/m3]
x1 = 0.0106 | – | 926.21
x1 = 0.027 | 0.00526 | –
x1 = 0.0564 | – | 923.86
x1 = 0.0962 | 0.0127 | –
x1 = 0.1023 | – | 921.52
x1 = 0.1361 | – | 919.91
x1 = 0.1645 | 0.0198 | –
x1 = 0.203 | – | 916.91
x1 = 0.226 | 0.0244 | –
x1 = 0.2536 | – | 914.74
x1 = 0.2888 | 0.0287 | –
x1 = 0.3054 | – | 912.64
x1 = 0.3478 | 0.0323 | –
x1 = 0.4002 | 0.0342 | –
x1 = 0.4122 | – | 908.65
x1 = 0.4437 | 0.0356 | –
x1 = 0.4511 | – | 907.3
x1 = 0.4822 | 0.0361 | –
x1 = 0.5276 | 0.0356 | –
x1 = 0.5456 | – | 904.19
x1 = 0.5725 | 0.0349 | –
x1 = 0.5906 | – | 902.8
x1 = 0.6148 | – | 902.08
x1 = 0.6268 | 0.033 | –
x1 = 0.6958 | 0.0292 | 899.76
x1 = 0.7394 | – | 898.57
x1 = 0.7669 | 0.0239 | –
x1 = 0.7873 | – | 897.29
x1 = 0.8368 | – | 896.07
x1 = 0.8497 | 0.0165 | –
x1 = 0.8884 | – | 894.85
x1 = 0.9313 | 0.0086 | –
x1 = 0.9538 | – | 893.32
x1 = 0.974 | – | 892.87
x1 = 1 | – | 892.34

COC(C)=O [methyl ethanoate] + CCCC(=O)OC
Details | mass density [kg/m3]
[1], x2 = 0 | 927.16

COC(C)=O [methyl ethanoate] + CC(C)CC(C)(C)C
Details | excess molar enthalpy [kcal/mol] | mass density [kg/m3]
[1], x2 = 0 | – | 927.16
[1], x2 = 0.0375 | – | 906.89
[1], x2 = 0.1025 | – | 876.58
[1], x2 = 0.1652 | – | 851.09
[1], x2 = 0.1775 | – | 846.59
[1], x2 = 0.2189 | – | 832.07
[1], x2 = 0.2615 | – | 818.03
[1], x2 = 0.302 | – | 805.95
[1], x2 = 0.3902 | – | 782.41
[1], x2 = 0.4061 | – | 778.52
[1], x2 = 0.4249 | – | 774.09
[1], x2 = 0.4627 | – | 765.54
[1], x2 = 0.5239 | – | 752.92
[1], x2 = 0.5411 | – | 749.57
[1], x2 = 0.61 | – | 737.18
[1], x2 = 0.6612 | – | 728.76
[1], x2 = 0.6786 | – | 726.1
[1], x2 = 0.7359 | – | 717.6
[1], x2 = 0.8086 | – | 708.07
[1], x2 = 0.8803 | – | 699.86
[1], x2 = 0.9521 | – | 692.07
[2], x2 = 0.02 | 0.037 | –
[2], x2 = 0.0525 | 0.0989 | –
[2], x2 = 0.0892 | 0.158 | –
[2], x2 = 0.1241 | 0.205 | –
[2], x2 = 0.1687 | 0.25 | –
[2], x2 = 0.2084 | 0.291 | –
[2], x2 = 0.256 | 0.331 | –
[2], x2 = 0.3079 | 0.369 | –
[2], x2 = 0.3608 | 0.397 | –
[2], x2 = 0.3915 | 0.409 | –
[2], x2 = 0.4323 | 0.421 | –
[2], x2 = 0.4764 | 0.428 | –
[2], x2 = 0.5406 | 0.42 | –
[2], x2 = 0.6163 | 0.393 | –
[2], x2 = 0.6888 | 0.348 | –
[2], x2 = 0.7833 | 0.275 | –
[2], x2 = 0.8597 | 0.189 | –
[2], x2 = 0.9422 | 0.0851 | –

COC(C)=O [methyl ethanoate] + CCCCC(=O)OC
Details | mass density [kg/m3]
[1], x2 = 0 | 927.16

CCCCCCCC [octane] + CCCCC(=O)OC
Details | mass density [kg/m3]
[1], x1 = 1 | 698.58

CC(C)CC(C)(C)C [2,2,4-trimethylpentane] + CCCCC(=O)OC
Details | mass density [kg/m3]
[1], x1 = 1 | 687.75

CC(C)CC(C)(C)C [2,2,4-trimethylpentane]
Details | mass density [kg/m3] | refractive index
[3] | 687.75 | –
[4] | – | 1.389

CCCC(=O)OC [methyl butanoate]
Details | mass density [kg/m3] | refractive index
[3] | 892.34 | –
[4] | – | 1.3845

COC(C)=O [methyl ethanoate]
Details | mass density [kg/m3] | refractive index
[3] | 927.16 | –
[4] | – | 1.3588
